In PMC3269340, “Pharmacokinetics of memantine in rats and mice” (PLoS Currents, 2012):
Like-named read-outs stand apart in the source and are kept apart here.

Legend:
[1] = Stability in rat liver microsomes; format: in vitro ADME; settings: 0.5 mg/mL pooled male microsomes, read-out: Intrinsic Clearance (Cl int) Liver Microsomes
Method: Memantine (1 μM) was incubated in 0.5 mg/mL of pooled male rat, mouse, or human liver microsomes (obtained commercially), in 0.1 M phosphate buffer at 37 °C. After pre-warming the mixture for 5 min, reactions were initiated by the addition of NADPH (1 mM). Aliquots (80 μL) were taken at 0, 5, 10, 20 and 40 min, and the reaction immediately terminated by adding into 80 μL of acetonitrile containing an analytical internal standard (IS). Samples were centrifuged and the supernatant fractions analyzed by LC-MS/MS with multiple reaction monitoring (MRM). All incubations were performed in duplicate. Testosterone was used as the positive control. The MRM area response ratio of the analyte over IS for Time=0(control) was set to 100%, the relative decrease in MRM area ratio intensity over time against that of the control (percent parent decrease) was used to determine the half-life (t1/2) of memantine in the incubation. Half-life values were calculated from the relationship:
t1/2 (min) = -0.693/λ, where λ is the slope of the Ln concentration vs time curve. The intrinsic clearance (Clint) was calculated as:
Clint = (0.693 x incubation volume (μL))/(t½ (min) x mg of microsomal protein)

OATP2B1 = target: T1, OATP2B1 (Homo sapiens, UniProt O94956); test: Direct uptake transporter assay, OATP2B1; format: in vitro ADME; settings: for Accumulation in transporter transfected cells: OATP2B1-transfected cells; for Accumulation in parental cells: parental MDCKII cells (OATP2B1 line)
T1 construct: expressed in transfected cells; host or cells: MDCKII cells
T1 sequence (O94956 1-709): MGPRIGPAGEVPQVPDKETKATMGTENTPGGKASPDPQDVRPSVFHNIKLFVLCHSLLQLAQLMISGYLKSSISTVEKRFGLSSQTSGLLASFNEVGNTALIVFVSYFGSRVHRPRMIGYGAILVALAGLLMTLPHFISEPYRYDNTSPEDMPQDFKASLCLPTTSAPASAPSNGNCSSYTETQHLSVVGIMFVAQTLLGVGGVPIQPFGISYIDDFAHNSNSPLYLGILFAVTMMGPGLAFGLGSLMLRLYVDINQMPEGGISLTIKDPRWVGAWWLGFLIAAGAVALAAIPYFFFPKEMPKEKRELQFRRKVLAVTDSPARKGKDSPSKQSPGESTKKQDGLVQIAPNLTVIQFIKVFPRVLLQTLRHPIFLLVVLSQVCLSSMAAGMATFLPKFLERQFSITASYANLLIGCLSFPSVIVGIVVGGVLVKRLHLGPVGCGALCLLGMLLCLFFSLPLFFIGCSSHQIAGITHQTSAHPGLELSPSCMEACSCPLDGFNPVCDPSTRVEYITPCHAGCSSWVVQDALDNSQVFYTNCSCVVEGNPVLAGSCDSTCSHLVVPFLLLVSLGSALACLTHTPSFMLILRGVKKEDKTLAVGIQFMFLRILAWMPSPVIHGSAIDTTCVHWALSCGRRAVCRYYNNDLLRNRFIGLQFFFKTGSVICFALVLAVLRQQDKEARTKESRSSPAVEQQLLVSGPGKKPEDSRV
Method: (§1) To determine whether memantine is a substrate of the human OATP2B1 (OATP-B), OCT1, OCT2, OAT3, PEPT1, PEPT2 uptake transporters.
(§2) The potential for memantine to be a substrate of an uptake transporter was determined directly by comparing the uptake of memantine into cells expressing the selected uptake transporter with its uptake into control cells. Memantine was added to transporter-expressing and control cells at two concentrations (PEPT1 and PEPT2 100 and 300 µM, OCT1 and OCT2 50 and 100 µM, OATP2B1 100 and 300 µM), and incubated with cells for 2 and 20 min at 37±1°C (75 µL final incubation volume). […] Incubations were carried out as described in the indirect uptake transporter assays. The concentration of memantine was determined by LC-MS/MS.

OCT2 = target: T2, OCT2 (Homo sapiens, UniProt O15244); test: Direct uptake transporter assay, OCT2; format: in vitro ADME; settings: for Accumulation in transporter transfected cells: OCT2-transfected cells; for Accumulation in parental cells: parental CHO cells (OCT2 line)
T2 construct: expressed in transfected cells; host or cells: CHO cells
T2 sequence (O15244 1-555): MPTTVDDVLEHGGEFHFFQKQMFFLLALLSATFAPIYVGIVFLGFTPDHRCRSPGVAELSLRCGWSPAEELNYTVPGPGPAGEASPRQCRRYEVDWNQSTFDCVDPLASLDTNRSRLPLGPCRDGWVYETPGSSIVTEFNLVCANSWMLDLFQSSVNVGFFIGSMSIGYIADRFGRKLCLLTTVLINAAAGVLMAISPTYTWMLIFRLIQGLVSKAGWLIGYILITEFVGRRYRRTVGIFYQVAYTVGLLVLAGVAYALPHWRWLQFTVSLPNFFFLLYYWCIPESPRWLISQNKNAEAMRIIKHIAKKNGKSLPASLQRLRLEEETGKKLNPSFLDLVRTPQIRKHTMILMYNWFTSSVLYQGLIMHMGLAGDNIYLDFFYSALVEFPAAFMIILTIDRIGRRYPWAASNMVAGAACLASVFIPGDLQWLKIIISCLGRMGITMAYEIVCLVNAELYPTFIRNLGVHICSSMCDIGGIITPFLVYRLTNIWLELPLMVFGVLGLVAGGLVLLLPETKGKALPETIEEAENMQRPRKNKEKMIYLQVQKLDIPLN
Method: as §1, §2

[2] = cited from earlier work

## CC12CC3CC(C)(C1)CC(N)(C3)C2 [memantine]
[1]
  microsomal CLint at 1 μM: 50.4 µL/min/mg
OATP2B1
  substrate of OATP2B1 uptake transporter: appeared to be a substrate
OATP2B1; OATP2B1
  accumulation in transporter-transfected cells higher than in parental cells: > 1.5 fold
OATP2B1; OATP2B1, 300 µM, 20 min
  Highest Fold Activation: 2.1 (300 µM, 20 min)
OATP2B1; 2 min, 100 µM
  Accumulation in transporter transfected cells: 11317 pmol/mg
  Accumulation in parental cells: 6409 pmol/mg
OATP2B1; 2 min, 300 µM
  Accumulation in transporter transfected cells: 18296 pmol/mg
  Accumulation in parental cells: 10891 pmol/mg
OATP2B1; 20 min, 100 µM
  Accumulation in transporter transfected cells: 20820 pmol/mg
  Accumulation in parental cells: 10889 pmol/mg
OATP2B1; 20 min, 300 µM
  Accumulation in transporter transfected cells: 45866 pmol/mg
  Accumulation in parental cells: 21496 pmol/mg
OCT2
  substrate of OCT2 uptake transporter: appeared to be a substrate
OCT2; OCT2
  accumulation in transporter-transfected cells higher than in parental cells: > 1.5 fold
OCT2; OCT2, 100µM, 2 min
  Highest Fold Activation: 1.88 (100µM, 2 min)
OCT2; 2 min, 50 µM
  Accumulation in transporter transfected cells: 8492 pmol/mg
  Accumulation in parental cells: 5660 pmol/mg
OCT2; 2 min, 100 µM
  Accumulation in transporter transfected cells: 15071 pmol/mg
  Accumulation in parental cells: 8000 pmol/mg
OCT2; 20 min, 50 µM
  Accumulation in transporter transfected cells: 8866 pmol/mg
  Accumulation in parental cells: 5790 pmol/mg
OCT2; 20 min, 100 µM
  Accumulation in transporter transfected cells: 15495 pmol/mg
  Accumulation in parental cells: 8459 pmol/mg
[2]; human plasma/serum, 10 mg twice daily po, normal renal clearance
  Cmax: 83.5 ng/mL
[2]; human plasma/serum, 10 mg twice daily, read-out: Cmax
  Cmax: 470 nM
[2]; human, 10 mg BID po, read-out: Cmax
  Cmax: 470 nM
[2]; human, 10 mg BID
  C min: 300 nM
  Cmax/Cmin ratio at steady state: 1.54
[2]; human, acidic conditions
  renal clearance as share of total systemic clearance: 92%
[2]; human, alkaline conditions
  renal clearance as share of total systemic clearance: 60-67%
[2]; human, normal renal function
  Total plasma clearance (Clp): 182 mL/min
  renal clearance (Clr): 164 mL/min
  share of total plasma clearance accounted for by renal clearance: 90%
[2]; human, po
  Tmax: 4 to 6 h
[2]; human
  dose eliminated as intact memantine in the urine: 75-90%
  elimination half-life: 60 to 80 h
  volume of distribution at steady state (Vdss): 9 to 11 L/kg
